The values below come from US11512268B2, “Storage-stable enzyme preparations, their production and use” (BASF SE, priority 2017, dated 2022).

For one test, the target named is T1, Lipolase (Thermomyces lanuginosus, UniProt O59952).
T1 construct: purchased Sigma-Aldrich
T1 sequence (O59952 23-291): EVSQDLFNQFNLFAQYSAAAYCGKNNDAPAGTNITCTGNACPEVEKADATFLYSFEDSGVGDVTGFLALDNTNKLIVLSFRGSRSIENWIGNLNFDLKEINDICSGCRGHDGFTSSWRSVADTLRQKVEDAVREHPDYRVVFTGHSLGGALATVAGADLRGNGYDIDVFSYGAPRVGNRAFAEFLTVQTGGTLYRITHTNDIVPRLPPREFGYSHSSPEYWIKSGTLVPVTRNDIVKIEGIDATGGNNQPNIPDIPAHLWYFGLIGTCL
As to the kind of experiment: storage stability of lipase (Lipolase activity, pNitrophenol-valerate substrate) in liquid formulations at 37° C. The class given is biochemical, Thermomyces lanuginosa. The following applies: component (a) 2.5 wt %, Lipolase 0.4 wt %, storage at 37° C. As for the experimental part: (§1) The storage stability of Lipase and Protease in water was assessed at 37° C.
(§2) Base test formulations were manufactured by making base formulations I to VI by mixing the components according to Table 1.
(§3) The respective salt (component (a)) or comparative compound was added, if applicable, to the respective base formulation in amounts as indicated in Table 1.
(§4) The amount of enzyme as provided in Table 1 refers to active protein. Either lipase or protease was added, depending on which enzyme activity was measured.
(§5) Lipolase® 100 L (CAS-No. 9001-62-1, EC-No. 232-619-9) was purchased from Sigma-Aldrich. Savinase® 16.0 L (CAS-No. 9014-01-1, EC-No. 232-752-2) was purchased from Sigma-Aldrich.
Lipolase activity at certain points in time as indicated in Table 2 was be determined by employing pNitrophenol-valerate (2.4 mM pNP-C5 in 100 mM Tris pH 8.0, 0.01% Triton X100) as a substrate. The absorption was measured at 20° C. every 30 seconds over 5 minutes at 405 nm. The slope (absorbance increase at 405 nm per minute) of the time dependent absorption-curve is directly proportional to the activity of the lipase.
The lipolytic activity values provided in Table 2 were calculated referring to the 100% value determined in the reference formulation at the time 0.
(§6) The nomenclature of formulations is as follows: the Roman number before the full stop characterizes the base formulation, the Arabian number the type of salt (A.# inventive salt (component (a)); C-(A.#) comparative compound). Zero (“0”): no salt, but diethylene glycol.

The target of the next test is T2, Savinase (Lederbergia lenta, UniProt P29600).
T2 construct: purchased Sigma-Aldrich
T2 sequence (P29600 1-269): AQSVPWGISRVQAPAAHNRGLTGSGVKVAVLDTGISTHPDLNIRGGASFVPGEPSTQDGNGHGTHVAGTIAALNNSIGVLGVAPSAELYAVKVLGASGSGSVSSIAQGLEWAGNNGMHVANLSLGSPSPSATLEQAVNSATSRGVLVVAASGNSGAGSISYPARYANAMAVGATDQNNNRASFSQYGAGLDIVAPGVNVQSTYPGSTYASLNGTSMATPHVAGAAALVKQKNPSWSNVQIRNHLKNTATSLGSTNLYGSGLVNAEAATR
Description: storage stability of protease (Savinase activity, Suc-AAPF-pNA substrate) in liquid formulations at 37° C. The class given is biochemical. The following applies: base formulation III., component (a) 2.5 wt %, Savinase 16.0 L 0.5 wt %, storage at 37° C. As for the experimental part:
as §1, §2, §3, §4, §5
Savinase activity at certain points in time as indicated in Table 3 was be determined by employing Succinyl-Ala-Ala-Pro-Phe-p-nitroanilide (Suc-AAPF-pNA, short AAPF) as substrate. pNA is cleaved from the substrate molecule by proteolytic cleavage, resulting in release of yellow color of free pNA which was determined by measuring OD405. Measurement were done at 20° C.
The proteolytic activity values provided in Table 3 were calculated referring to the 100% value determined in the reference formulation at the time 0.
as §6

On to `CC(=O)OCC[N+](C)(C)C` [(A.12), Acetylcholine], for which the lipase activity is given as 98% on Lipolase (base formulation II., 1 d); 96% on Lipolase (base formulation II., 3 d); 95% on Lipolase (base formulation II., 6 d); 88% at Lipolase (base formulation II., 10 d); 86% at Lipolase (base formulation II., 15 d); 80% on Lipolase (base formulation II., 20 d). Also, the lipase activity amounted to 77% at Lipolase (base formulation II., 25 d); 76% on Lipolase (base formulation II., 30 d); 98% on Lipolase (base formulation III., 1 d); 97% at Lipolase (base formulation III., 3 d); 95% on Lipolase (base formulation III., 6 d); 91% on Lipolase (base formulation III., 10 d). The lipase activity on Lipolase (base formulation III., 15 d) was 86%; at Lipolase (base formulation III., 20 d), 80%; on Lipolase (base formulation III., 25 d), 78%; on Lipolase (base formulation III., 30 d), 74%. Further, the protease activity on Savinase (1 d) is recorded as 96%; at Savinase (3 d), 92%; at Savinase (6 d), 80%; at Savinase (10 d), 70%; at Savinase (15 d) it was 61%; on Savinase (20 d), 50%. The protease activity at Savinase (25 d) stood at 39%; on Savinase (30 d), 31%; at Savinase (T0) it was 96%.
Take `O=C([O-])CC(O)(CC(=O)O)C(=O)O.[Na+]` [C-(A.20), monosodium salt of citric acid]: the lipase activity at Lipolase (base formulation III., 1 d) is given as 92%; on Lipolase (base formulation III., 3 d), 79%; on Lipolase (base formulation III., 6 d) it was 70%; on Lipolase (base formulation III., 10 d), 51%; on Lipolase (base formulation III., 15 d), 39%; on Lipolase (base formulation III., 20 d), 30%. For the same molecule, the lipase activity at Lipolase (base formulation III., 25 d) turned out to be 22%; at Lipolase (base formulation III., 30 d), 16%; at Lipolase (base formulation III., T0), 100%.
Turning to `O=C([O-])CC(O)(CC(=O)[O-])C(=O)O.[Na+].[Na+]` [C-(A.21), disodium salt of citric acid], the lipase activity on Lipolase (base formulation III., 1 d) amounted to 93%; on Lipolase (base formulation III., 3 d) it was 78%; on Lipolase (base formulation III., 6 d) it was 68%; on Lipolase (base formulation III., 10 d), 50%; on Lipolase (base formulation III., 15 d), 39%; on Lipolase (base formulation III., 20 d), 31%. Besides, the lipase activity at Lipolase (base formulation III., 25 d) is on record as 25%; on Lipolase (base formulation III., 30 d), 20%; on Lipolase (base formulation III., T0) it was 101%.
With `O=C([O-])CC(O)(CC(=O)[O-])C(=O)[O-].[Na+].[Na+].[Na+]` [C-(A.22), trisodium salt of citric acid], the lipase activity on Lipolase (base formulation II., 1 d) is recorded as 87%; at Lipolase (base formulation II., 3 d), 79%; on Lipolase (base formulation II., 6 d), 67%; on Lipolase (base formulation II., 10 d), 55%; at Lipolase (base formulation II., 15 d), 40%; at Lipolase (base formulation II., 20 d), 33%. Moreover, the lipase activity is 24% on Lipolase (base formulation II., 25 d); 18% at Lipolase (base formulation II., 30 d); 95% on Lipolase (base formulation II., T0); 92% at Lipolase (base formulation III., 1 d); 76% at Lipolase (base formulation III., 3 d); 66% at Lipolase (base formulation III., 6 d). In addition, the lipase activity was 48% on Lipolase (base formulation III., 10 d); 37% on Lipolase (base formulation III., 15 d); 28% on Lipolase (base formulation III., 20 d); 23% at Lipolase (base formulation III., 25 d); 19% at Lipolase (base formulation III., 30 d); 98% on Lipolase (base formulation III., T0).
